The values that follow come from ChEMBL document CHEMBL2074223 (Mol Pharmacol, 2000).

Assay type in all cases: functional, cell-based
The target of series [1] is T1, Bile salt export pump (Mus musculus, UniProt Q9QY30).
T1 sequence (Q9QY30 whole entry): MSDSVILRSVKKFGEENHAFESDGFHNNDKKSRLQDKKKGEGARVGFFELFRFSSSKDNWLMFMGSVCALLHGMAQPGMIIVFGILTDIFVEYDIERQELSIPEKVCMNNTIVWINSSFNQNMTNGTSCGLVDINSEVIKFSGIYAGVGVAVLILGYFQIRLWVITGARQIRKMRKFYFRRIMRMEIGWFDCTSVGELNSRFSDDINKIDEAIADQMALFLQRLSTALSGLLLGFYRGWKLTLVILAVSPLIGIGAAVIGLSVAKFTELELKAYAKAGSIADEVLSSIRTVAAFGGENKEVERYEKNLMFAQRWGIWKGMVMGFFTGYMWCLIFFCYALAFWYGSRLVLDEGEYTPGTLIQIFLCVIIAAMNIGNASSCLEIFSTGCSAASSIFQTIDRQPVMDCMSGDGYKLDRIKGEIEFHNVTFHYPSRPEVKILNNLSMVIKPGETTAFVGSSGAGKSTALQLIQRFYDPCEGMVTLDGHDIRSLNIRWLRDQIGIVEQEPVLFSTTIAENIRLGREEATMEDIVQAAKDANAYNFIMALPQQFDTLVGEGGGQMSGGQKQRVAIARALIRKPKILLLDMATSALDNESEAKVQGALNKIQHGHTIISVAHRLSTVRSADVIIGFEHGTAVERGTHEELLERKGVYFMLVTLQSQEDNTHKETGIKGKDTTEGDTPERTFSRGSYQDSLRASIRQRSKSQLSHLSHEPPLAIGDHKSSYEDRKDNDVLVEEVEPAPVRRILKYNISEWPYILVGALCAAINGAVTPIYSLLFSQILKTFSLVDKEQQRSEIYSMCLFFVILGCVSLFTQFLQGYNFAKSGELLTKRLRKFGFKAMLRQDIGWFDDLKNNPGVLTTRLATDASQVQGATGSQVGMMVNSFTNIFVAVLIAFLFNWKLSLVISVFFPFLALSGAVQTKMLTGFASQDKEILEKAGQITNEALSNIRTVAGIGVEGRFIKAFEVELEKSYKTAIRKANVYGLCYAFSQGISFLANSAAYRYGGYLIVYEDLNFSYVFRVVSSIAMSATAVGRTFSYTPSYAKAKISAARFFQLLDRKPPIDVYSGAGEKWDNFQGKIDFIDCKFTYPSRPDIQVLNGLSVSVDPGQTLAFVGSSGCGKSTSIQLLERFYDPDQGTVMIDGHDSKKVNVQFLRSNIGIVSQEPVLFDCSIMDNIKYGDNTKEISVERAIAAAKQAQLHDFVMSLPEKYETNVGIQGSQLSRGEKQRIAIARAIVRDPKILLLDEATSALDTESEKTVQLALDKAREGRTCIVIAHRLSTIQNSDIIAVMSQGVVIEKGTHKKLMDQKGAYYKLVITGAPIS
As to the kind of experiment: TP_TRANSPORTER: increase in Calcein-AM intracellular accumulation (Calcein-AM: 1 uM, Ditekiren: 20 uM) in Bsep-expressing LLC-PK1 cells. Particulars: pig, llc-pk1, 20 µM.

For series [2], the target named is T2, ATP-dependent translocase ABCB1 (Homo sapiens, UniProt P08183). The series is described as follows: TP_TRANSPORTER: increase in Calcein-AM intracellular accumulation (Calcein-AM: 1 uM, Ditekiren: 20 uM) in MDR1-expressing LLC-PK1 cells. The conditions noted are these: pig, llc-pk1, 20 µM.
Series [3] deals with T1, Bile salt export pump. The series is described as follows: (§1) TP_TRANSPORTER: intracellular accumulation in Bsep-expressing LLC-PK1 cells. Particulars: pig.
Series [4] concerns the target T2, ATP-dependent translocase ABCB1. The series is described as follows: (§2) TP_TRANSPORTER: intracellular accumulation in MDR1-expressing LLC-PK1 cells. Particulars: pig.
Series [5] deals with T1, Bile salt export pump. As to the kind of experiment: TP_TRANSPORTER: increase in Calcein-AM intracellular accumulation (Calcein-AM: 1 uM, Reserpine: 20 uM) in Bsep-expressing LLC-PK1 cells. Particulars: pig, llc-pk1, 20 µM.
Series [6] concerns CC[C@]1(O)C[C@@H]2CN(CCc3c([nH]c4ccccc34)[C@@](C(=O)OC)(c3cc4c(cc3OC)N(C)[C@H]3[C@@](O)(C(=O)OC)[C@H](OC(C)=O)[C@]5(CC)C=CCN6CC[C@]43[C@@H]65)C2)C1. The description is as §2.
Substrate in series [7]: CC[C@]1(O)C[C@@H]2CN(CCc3c([nH]c4ccccc34)[C@@](C(=O)OC)(c3cc4c(cc3OC)N(C)[C@H]3[C@@](O)(C(=O)OC)[C@H](OC(C)=O)[C@]5(CC)C=CCN6CC[C@]43[C@@H]65)C2)C1
Described as §1.

T2 sequence (P08183 whole entry): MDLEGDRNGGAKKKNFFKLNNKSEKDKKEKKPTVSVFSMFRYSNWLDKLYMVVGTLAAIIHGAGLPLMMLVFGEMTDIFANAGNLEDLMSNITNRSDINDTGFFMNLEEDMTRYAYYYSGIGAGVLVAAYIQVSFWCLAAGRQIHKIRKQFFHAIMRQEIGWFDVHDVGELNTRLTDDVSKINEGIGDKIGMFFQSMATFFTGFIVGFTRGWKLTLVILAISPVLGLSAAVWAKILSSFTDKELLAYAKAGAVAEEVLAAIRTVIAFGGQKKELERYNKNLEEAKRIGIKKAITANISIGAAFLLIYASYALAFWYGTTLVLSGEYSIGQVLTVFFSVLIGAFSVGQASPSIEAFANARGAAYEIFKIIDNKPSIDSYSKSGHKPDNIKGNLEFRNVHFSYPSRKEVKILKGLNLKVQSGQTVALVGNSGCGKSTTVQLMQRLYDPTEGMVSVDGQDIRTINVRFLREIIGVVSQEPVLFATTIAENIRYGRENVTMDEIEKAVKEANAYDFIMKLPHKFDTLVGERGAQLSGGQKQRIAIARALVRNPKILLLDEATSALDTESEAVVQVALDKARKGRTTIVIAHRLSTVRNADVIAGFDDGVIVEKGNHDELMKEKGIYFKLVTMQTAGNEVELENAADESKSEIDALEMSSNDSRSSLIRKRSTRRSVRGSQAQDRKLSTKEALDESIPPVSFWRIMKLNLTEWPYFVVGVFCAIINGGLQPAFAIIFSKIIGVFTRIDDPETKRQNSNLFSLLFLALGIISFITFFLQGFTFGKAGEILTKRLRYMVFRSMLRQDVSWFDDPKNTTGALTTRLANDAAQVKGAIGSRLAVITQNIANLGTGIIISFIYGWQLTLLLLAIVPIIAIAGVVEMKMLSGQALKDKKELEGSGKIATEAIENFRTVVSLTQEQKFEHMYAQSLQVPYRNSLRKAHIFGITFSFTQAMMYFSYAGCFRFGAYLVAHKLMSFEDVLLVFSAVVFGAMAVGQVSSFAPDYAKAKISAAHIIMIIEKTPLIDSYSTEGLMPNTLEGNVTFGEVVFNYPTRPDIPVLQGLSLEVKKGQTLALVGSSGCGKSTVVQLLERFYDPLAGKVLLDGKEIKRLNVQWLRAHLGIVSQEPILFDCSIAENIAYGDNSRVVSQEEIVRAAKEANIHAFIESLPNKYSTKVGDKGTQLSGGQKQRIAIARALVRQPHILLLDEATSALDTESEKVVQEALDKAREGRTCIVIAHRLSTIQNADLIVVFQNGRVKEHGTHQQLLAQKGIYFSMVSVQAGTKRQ

In the case of `CC[C@H](C)[C@H](NC(=O)[C@@H](C[C@H](O)[C@H](CC(C)C)NC(=O)[C@H](Cc1c[nH]cn1)N(C)C(=O)[C@H](Cc1ccccc1)NC(=O)[C@@H]1CCCN1C(=O)OC(C)(C)C)C(C)C)C(=O)NCc1ccccn1`, the Activity entry at Bile salt export pump [1] is “inhibitor [+]”; in series [2], “is not an inhibitor [-]”. Turning to `CC(=O)OCOC(=O)CN(CC(=O)OCOC(C)=O)Cc1c(OC(C)=O)ccc2c1Oc1c(ccc(OC(C)=O)c1CN(CC(=O)OCOC(C)=O)CC(=O)OCOC(C)=O)C21OC(=O)c2ccccc21`, the Activity entry (on Bile salt export pump [3]; in series [4]) was “substrate [+]” each time.

`COc1cccc2c1C(=O)c1c(O)c3c(c(O)c1C2=O)C[C@@](O)(C(C)=O)C[C@@H]3O[C@H]1C[C@H](N)[C@H](O)[C@H](C)O1` [DAUNORUBICIN]: the Activity result was “is not a substrate [-]” at Bile salt export pump [3] and “substrate [+]” in series [4]. `C[C@H]1O[C@@H](O[C@H]2[C@@H](O)C[C@H](O[C@H]3[C@@H](O)C[C@H](O[C@H]4CC[C@@]5(C)[C@H](CC[C@@H]6[C@@H]5C[C@@H](O)[C@]5(C)[C@@H](C7=CC(=O)OC7)CC[C@]65O)C4)O[C@@H]3C)O[C@@H]2C)C[C@H](O)[C@@H]1O` [DIGOXIN]: the Activity entry on Bile salt export pump [3] was “is not a substrate [-]”.

With `CC(=O)O[C@H]1C(=O)[C@@]2(C)[C@H]([C@H](OC(=O)c3ccccc3)[C@]3(O)C[C@H](OC(=O)[C@H](O)[C@@H](NC(=O)c4ccccc4)c4ccccc4)C(C)=C1C3(C)C)[C@]1(OC(C)=O)CO[C@@H]1C[C@@H]2O` [PACLITAXEL], the Activity result is “is not a substrate [-]” on Bile salt export pump [3] and “substrate [+]” in series [4]. Turning to `COC(=O)[C@H]1[C@H]2C[C@@H]3c4[nH]c5cc(OC)ccc5c4CCN3C[C@H]2C[C@@H](OC(=O)c2cc(OC)c(OC)c(OC)c2)[C@@H]1OC` [RESERPINE], at Bile salt export pump [5], the Activity result was “inhibitor [+]”. Regarding `COC(=O)c1ccccc1-c1c2ccc(=N)cc-2oc2cc(N)ccc12.Cl` [RHODAMINE123], the Activity entry at Bile salt export pump [3] is “is not a substrate [-]”; in series [4], “substrate [+]”. As to `CC[C@]1(O)C[C@H]2CN(CCc3c([nH]c4ccccc34)[C@@](C(=O)OC)(c3cc4c(cc3OC)N(C=O)[C@H]3[C@@](O)(C(=O)OC)[C@H](OC(C)=O)[C@]5(CC)C=CCN6CC[C@]43[C@@H]65)C2)C1` [VINCRISTINE], the Activity result was “is not a substrate [-]” on Bile salt export pump [3] and “substrate [+]” in series [4]. Take “ATP-dependent translocase ABCB1 (Homo sapiens)”: the Km in series [6] was determined as 99.4 µM.

B1: Bile salt export pump (Mus musculus) (protein)
chain: T1 sequence (Q9QY30 whole entry)
B1: the Km in series [7] came to 38.3 µM.
